This passage reports Ki, Selectivity ratio and Kd results from ChEMBL document CHEMBL1143158, “Tritium radiolabelling of PB28, a potent sigma-2 receptor ligand: pharmacokinetic and pharmacodynamic characterization” (Bioorg Med Chem Lett, 2008).

A short description of assay [1]: Displacement of [3H]PB28 from sigma 2 receptor in rat liver membrane. It counts as cell membranes.
The species named for the next assay is Rattus norvegicus. Kind of assay: Selectivity for rat sigma 2 receptor over rat sigma1 receptor. The following applies: tested as the 3H-labelled form.
A short description of assay [2]: Displacement of [3H]DTG from sigma 2 receptor in rat liver membrane. Type of assay: cell membranes.
Assay [3] concerns the target Sigma non-opioid intracellular receptor 1 (Rattus norvegicus, UniProt Q9R0C9). In words: Binding affinity to sigma 1 receptor in rat liver membrane. It counts as cell membranes.
The nature of assay [4]: Binding affinity to sigma 2 receptor in rat liver membrane by saturation analysis. It counts as cell membranes.

Each structure is given as a SMILES string.

Sequence of Sigma non-opioid intracellular receptor 1 (Q9R0C9 whole entry): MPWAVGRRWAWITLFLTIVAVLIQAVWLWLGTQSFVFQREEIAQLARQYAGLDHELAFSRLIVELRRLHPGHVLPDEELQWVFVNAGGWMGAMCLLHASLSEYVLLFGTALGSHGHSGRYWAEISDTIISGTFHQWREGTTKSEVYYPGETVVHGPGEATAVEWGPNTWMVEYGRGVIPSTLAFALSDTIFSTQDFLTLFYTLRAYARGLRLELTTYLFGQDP

The molecule `Cc1ccccc1NC(=N)Nc1ccccc1C` [DITOLYLGUANIDINE] came in with a Ki in assay [1] of 42 nM.
Turning to `COc1cccc2c1CCCC2CCCN1CCN(C2CCCCC2)CC1` (centres undefined), the Selectivity ratio in the assay listed under Rattus norvegicus came out at 40. The Ki in assay [1] is 0.57 nM; in assay [2], 0.34 nM.
`[3H]C1CCCCC1([3H])N1CCN(CCCC2CCCc3c(OC)cccc32)CC1` (centres undefined) yielded a Ki in assay [3] of 13.6 nM. In assay [4], this molecule showed a Kd of 0.12 nM.
Consider `[3H]C([3H])([3H])Oc1ccc(C)cc1C(=O)NCCCCN1CCc2cc(OC)c(OC)cc2C1`, for which binding in assay [4] was characterised by a dissociation constant (Kd) of 0.66 nM.
In the case of `O=C(CCCN1CCC(O)(c2ccc(Cl)cc2)CC1)c1ccc(F)cc1` [HALOPERIDOL], the results for the Ki in assay [1] and in assay [2] were 5.85 nM and 7.38 nM, respectively.

One may read the Ki as the equilibrium dissociation constant of an inhibitor or competing ligand from its target. Low readings indicate higher affinity, high ones lower affinity. Usually Kd stands for the free concentration of one partner at which half of the binding sites on the other are occupied at equilibrium, for simple one-to-one binding.
